Measured values: patent US11883383B2, “Pharmaceutically acceptable salts of [3-(4- {2-butyl-1-[4-(4-chloro-phenoxy)-phenyl]-1H-imidazol-4-yl} -phenoxy)-propyl]-diethyl-amine” (vTv Therapeutics LLC, priority 2018, dated 2024)

Assay: Salt/co-crystal screening: 38 acids, eight solvent systems, solids analysed by XRPD
Type: physicochemical
Details: acid/freebase charge 1:1 unless label says 2:1, stirred at RT, else 5° C. slurry, anti-solvent addition or evaporation (footnote marks)
Procedure: XRPD analysis was performed with a Panalytical X'Pert^3 Powder XRPD on a Si zero-background holder. The 2θ position was calibrated against Panalytical Si reference standard disc.
A total of 320 salt/co-crystal screening experiments were conducted using 38 acids (two molar ratios for HCl and HBr) and eight solvent systems. Specifically, freebase stock solutions of ˜100 mg/mL were first prepared in each solvent system. For each experiment, 0.2 mL stock solution and the corresponding acids were mixed in a molar charge ratio of 1:1 (acid/freebase, 2:1 for HCl/freebase and HBr/freebase as well), and then stirred at RT. After stirring for 3-5 days, if precipitation was observed, the precipitate was isolated. It no precipitation, the clear solutions were first transferred to slurry at 5° C. to introduce precipitation. Solutions without any precipitation were further subjected to anti-solvent addition (for solvents in column B/D, 0.5 mL hexane was added; for solvents in column G/H, 0.5 mL water was added; for solvent in column F, 0.5 mL n-heptane was added). If still no precipitation, the final clear solutions were transferred to evaporation at RT to induce precipitation. All solids isolated were vacuum dried at RT for 2 hrs before XRPD analysis.

Row | Solid obtained in salt screening (XRPD), solvent D Acetone/Hexane (1:2, v/v) | Solid obtained in salt screening (XRPD), solvent H Dioxane/H2O (9:1, v/v) | Solid obtained in salt screening (XRPD), solvent A Ethanol | Solid obtained in salt screening (XRPD), solvent B Ethyl acetate/Hexane (1:2, v/v) | Solid obtained in salt screening (XRPD), solvent G Methanol/H2O (19:1, v/v) | Solid obtained in salt screening (XRPD), solvent F Methyl tertbutyl ether | Solid obtained in salt screening (XRPD), solvent C THF | Solid obtained in salt screening (XRPD), solvent E Toluene | SMILES
1 | gel | amorphous* | amorphous* | gel* | amorphous* | gel | gel | gel | O=C(O)c1ccc2ccccc2c1O [1-hydroxy-2-naphthoic acid]
2 | FB Type B* | amorphous* | gel* | amorphous* | amorphous* | amorphous* | gel* | gel* | O=C(O)CCCCC(=O)O [Adipic acid]
3 | – | amorphous* | gel* | – | amorphous* | amorphous | amorphous^# | amorphous | O=C(O)CC(O)(CC(=O)O)C(=O)O [Citric acid]
4 | – | amorphous* | gel* | – | amorphous* | – | gel* | – | O=C(O)/C=C/C(=O)O [Fumaric acid]
5 | – | glutamic acid | glutamic acid | – | – | glutamic acid | – | – | N[C@@H](CCC(=O)O)C(=O)O [Glutamic acid]
6 | gel | gel* | gel* | gel | gel* | – | gel | amorphous* | O=S(=O)(O)O [H2SO4]
7 | amorphous* | amorphous* | gel* | – | amorphous* | – | gel* | gel* | O=C(O)CNC(=O)c1ccccc1 [Hippuric acid]
8 | gel | amorphous* | amorphous* | gel* | amorphous* | gel | gel | gel* | C[C@H](O)C(=O)O [L-lactic acid]
9 | gel | amorphous* | amorphous* | – | amorphous* | – | gel | gel | O=C(O)C[C@H](O)C(=O)O [L-malic acid]
10 | – | – | – | – | amorphous* | – | – | – | O=C(O)C(O)C(O)C(=O)O [L-tartartic acid]
11 | – | amorphous* | gel* | – | amorphous* | – | gel* | gel* | O=C(O)/C=C\C(=O)O [Maleic acid]
12 | amorphous* | amorphous* | gel* | amorphous* | amorphous* | gel* | gel* | gel* | O=C(O)CC(=O)O [Malonic acid]
13 | gel | gel* | gel* | – | gel* | amorphous | gel | gel* | CS(=O)(=O)O [Methane sulfonic acid]
14 | – | amorphous* | gel* | nicotinic acid | amorphous* | nicotinic acid | gel* | – | O=C(O)c1cccnc1 [Nicotinic acid]
15 | – | – | – | – | gel* | – | – | – | O=C(O)C(=O)O [Oxalic acid]
16 | gel* | gel* | gel* | gel* | FB Type A^& | gel* | gel* | gel* | CCCCCCCCCCCCCCCC(=O)O [Palmitic acid]

Row | SMILES | Solid obtained in salt screening (XRPD), solvent D Acetone/Hexane (1:2, v/v) | Solid obtained in salt screening (XRPD), solvent H Dioxane/H2O (9:1, v/v) | Solid obtained in salt screening (XRPD), solvent A Ethanol | Solid obtained in salt screening (XRPD), solvent B Ethyl acetate/Hexane (1:2, v/v) | Solid obtained in salt screening (XRPD), solvent G Methanol/H2O (19:1, v/v) | Solid obtained in salt screening (XRPD), solvent F Methyl tertbutyl ether | Solid obtained in salt screening (XRPD), solvent C THF | Solid obtained in salt screening (XRPD), solvent E Toluene
17 | Nc1ccc(C(=O)O)c(O)c1 [4-Aminosalicylic acid] | gel | gel | gel* | – | – | – | gel | gel
18 | O=C(O)c1ccccc1 [Benzoic acid] | gel* | amorphous* | gel* | gel* | amorphous* | amorphous* | gel* | gel*
19 | O=C(O)c1cc(O)ccc1O [Gentisic acid] | – | – | gel* | – | – | – | gel* | –
20 | O=C(O)[C@H](O)[C@@H](O)[C@H](O)[C@H](O)CO [Gluconic acid] | amorphous^& | amorphous* | amorphous* | gel* | amorphous* | amorphous | amorphous* | gel
21 | O=C(O)CCCC(=O)O [Glutaric acid] | amorphous* | amorphous* | gel* | amorphous* | amorphous* | amorphous^& | gel* | gel*
22 | Br.CCCCc1nc(-c2ccc(OCCCN(CC)CC)cc2)cn1-c1ccc(Oc2ccc(Cl)cc2)cc1 [HBr (1:1)] | – | gel* | – | – | – | – | – | –
23 | CCCCCC(=O)O [Hexanoic acid] | gel* | FB Type A* | gel | gel* | amorphous* | FB Type B^& | gel | gel
